# “Also recorded” adds a separate entry of the source. Read-outs that look alike come from different tables or passages of the source. Ends that are not written are not given here.
# Experiments:
# [1] = test system: pro-survival proteins (Bcl-2, Bcl-xL, Bcl-w, Mcl-1, A1); experiment: Solution competition assay, statements spanning several pro-survival proteins; format: binding, human and mouse; conditions: for binding preference among pro-survival proteins: Bcl-2, Bcl-xL, Bcl-w, Mcl-1, A1
# Description: (§1) The relative affinities of BH3 peptides for pro-survival Bcl-2 proteins were assessed by comparing their abilities to compete with immobilized ^wtBimBH3 peptide for binding to Bcl-2-like proteins (Wilson-Annan et al., Supra). A fixed sub-saturating amount (10 nM) of a pro-survival Bcl-2 protein was incubated with varying amounts of competitor BH3 peptide in HBS for >2 hr on ice. The mixtures were then injected over a sensor chip containing a channel bearing mouse ^wtBimBH3 and a control channel with mouse ^4EBimBH3 immobilized. The baseline response (control channel) was subtracted to obtain the absolute binding response. Taking the response for the pro-survival protein alone as the maximal response (100%), the relative residual binding (%) in the presence of increasing amounts of competitor peptides at a given injection time point (430 s) was then calculated. […] Theoretically, IC50=[A]/2+KD, where [A] is the analyte concentration.
# (§2) Some of recombinant proteins (Bcl-2, Bcl-xL, A1) studied contain cysteine residues but the behavior of Bcl-2 or Bcl-xL was not affected by dithiothreitol (DTT).
# (§3) To assess if other BH3 peptides bind pro-survival proteins similarly, we directly compared their binding affinities in solution using a competitive binding assay. In such assays, the quality and absolute quantity of target proteins are less critical than in direct binding, and solution binding precludes the steric hindrance encountered with some immobilized peptides. FIG. 1C illustrates the approach: pre-incubation of Bcl-xL in solution with increasing amounts of BikBH3 reduced its binding to ^wtBimBH3 (FIG. 1D). From the attenuation in binding, the IC50 (competitor peptide concentration that halves binding) of BikBH3 can be calculated (FIG. 1E). As the IC50 values reflect relative binding affinities (see Experimental Procedures), we used this assay to compare the binding affinities of eight BH3 peptides (Table 3) to the five pro-survival proteins. […] Their binding properties fell into several classes (FIG. 2B and FIG. 4). […] Contrary to the prevailing view, the pro-survival proteins also had unique patterns for BH3 binding: Bcl-xL behaved like Bcl-w, with Bcl-2 more distinct, whereas Mcl-1 and A1 formed a separate group (FIG. 2B).
# [2] = test system: mouse embryonic fibroblasts (MEFs); experiment: Killing of MEFs after retroviral expression, viability 24 hours after infection; format: cell-based; conditions: retroviral expression, 24 hours after infection
# Description: FIG. 7 is a graphical representation showing that BH3-only proteins that bind selective targets have weak killing activity. (A) The affinities of BH3-only peptides for pro-survival proteins (tabulated in FIG. 3A) were inversely plotted to facilitate comparison of the patterns of BH3 binding. […] Immortalized 3T9 MEFs were infected with retroviruses expressing only GFP (control), or one of the BH3-only proteins and GFP. The viability of the infected (GFP^+ve) cells was determined by PI exclusion 24 hours after infection. The histograms represent means±1SD of at least 3 experiments. […] The filter was probed with a rat monoclonal anti-FLAG antibody. *Degradation product of Mcl-1. […] Viability of MEFs infected with retroviruses encoding the indicated proteins (GFP^+ve) was analyzed 24 hours after infection. The histograms represent means±1SD of at least 3 experiments. (E) Long-term survival of MEFs infected with BH3 expressing retroviruses. One hundred retrovirally-infected cells were plated and the absolute number of GFP^+ve colonies formed after 6 days scored. […] The data represent the average number of GFP^+ve colonies formed±1SD from at least 3 experiments. To assess the biological relevance of the selective binding, retroviral delivery was used to compare the ability of different BH3-only proteins to kill wild-type mouse embryonic fibroblasts (MEFs). To monitor expression of the introduced gene, a vector (pMIG) in which its expression is coupled via an internal ribosomal entry site (IRES) to that of green fluorescent protein (GFP) was used (Van Parijs et al., Immunity 11:281-288, 1999). The cells were efficiently infected (>90%) and the introduced BH3-only proteins were comparably expressed. Viability of the infected (GFP^+ve) cells was scored 24 hours after infection (FIGS. 7A, 7B) and in long-term colony assays (FIG. 7E). […] Thus, the neutralization of Mcl-1 by Noxa should be complemented by co-expression of a BadBH3 to neutralize Bcl-2 and Bcl-xL in MEFs (FIG. 8A).
# [3] = test system: mouse embryonic fibroblasts (MEFs); experiment: Long-term colony assay of retrovirally infected MEFs; format: cell-based; conditions: colonies after 6 days
# Description: FIG. 7 is a graphical representation showing that BH3-only proteins that bind selective targets have weak killing activity. (A) The affinities of BH3-only peptides for pro-survival proteins (tabulated in FIG. 3A) were inversely plotted to facilitate comparison of the patterns of BH3 binding. […] Immortalized 3T9 MEFs were infected with retroviruses expressing only GFP (control), or one of the BH3-only proteins and GFP. The viability of the infected (GFP^+ve) cells was determined by PI exclusion 24 hours after infection. The histograms represent means±1SD of at least 3 experiments. […] The filter was probed with a rat monoclonal anti-FLAG antibody. *Degradation product of Mcl-1. […] Viability of MEFs infected with retroviruses encoding the indicated proteins (GFP^+ve) was analyzed 24 hours after infection. The histograms represent means±1SD of at least 3 experiments. (E) Long-term survival of MEFs infected with BH3 expressing retroviruses. One hundred retrovirally-infected cells were plated and the absolute number of GFP^+ve colonies formed after 6 days scored. […] The data represent the average number of GFP^+ve colonies formed±1SD from at least 3 experiments. […] Viability of the infected (GFP^+ve) cells was scored 24 hours after infection (FIGS. 7A, 7B) and in long-term colony assays (FIG. 7E).
# Bcl-2 = target: T1, Bcl-2 (Homo sapiens, UniProt P10415); experiment: Solution competition assay (competition with immobilized wtBimBH3, biosensor); format: binding; conditions: for binding to Bcl-2: Noxa mutant peptides
# T1 construct: Human Bcl-2 (Acc. no. NP_000624; residues 1-217); made in house
# T1 sequence (P10415 1-217): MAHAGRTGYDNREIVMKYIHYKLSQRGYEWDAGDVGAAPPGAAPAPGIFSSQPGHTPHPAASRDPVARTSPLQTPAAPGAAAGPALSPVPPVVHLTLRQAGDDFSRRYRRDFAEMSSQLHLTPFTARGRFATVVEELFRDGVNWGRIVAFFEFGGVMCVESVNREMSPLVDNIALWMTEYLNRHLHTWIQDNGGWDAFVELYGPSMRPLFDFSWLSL
# Description: as §1, §2, §3
# Bcl-xL = target: T2, Bcl-xL (Homo sapiens, UniProt Q07817); experiment: as above; format: binding; conditions: for fold tighter than wild-type peptide: IC50 ratio to wild-type Noxa BH3; for increase in binding to Bcl-xL: versus wt NoxaBH3
# T2 construct: Human Bcl-xL (Acc. no. NP_612815; residues 1-209); GST (N, cleaved yes); made in house
# T2 sequence (Q07817 1-209): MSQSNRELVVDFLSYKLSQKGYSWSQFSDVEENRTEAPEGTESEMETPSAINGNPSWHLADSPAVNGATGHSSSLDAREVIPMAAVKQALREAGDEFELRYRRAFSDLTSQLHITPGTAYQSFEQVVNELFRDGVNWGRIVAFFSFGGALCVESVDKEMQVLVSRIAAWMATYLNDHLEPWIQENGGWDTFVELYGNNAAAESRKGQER
# Description: as §1, §2, §3
# Mcl-1 = target: T3, Mcl-1 (Mus musculus, UniProt P97287); experiment: as above; format: binding; conditions: versus wt NoxaBH3
# T3 construct: mouse Mcl-1 (Acc. no. NP_031588; residues 152-308); GST (N, cleaved yes); made in house
# T3 sequence (P97287 152-308): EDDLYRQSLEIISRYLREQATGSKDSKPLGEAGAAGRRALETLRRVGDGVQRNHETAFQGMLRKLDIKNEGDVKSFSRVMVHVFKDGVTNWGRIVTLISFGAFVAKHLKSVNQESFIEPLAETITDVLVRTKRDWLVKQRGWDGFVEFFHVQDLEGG
# Description: as §1, §2, §3
# A1 ΔC20 = target: T4, A1 ΔC20 (Mus musculus, UniProt Q07440); experiment: Direct binding to immobilized BH3 peptide, Biacore biosensor; conditions: BadBH3 or NoxaBH3 immobilized chip
# T4 construct: mouse A1 (Acc. no. NP_033872; residues 1-152); GST (N, cleaved yes); made in house
# T4 sequence (Q07440 1-152): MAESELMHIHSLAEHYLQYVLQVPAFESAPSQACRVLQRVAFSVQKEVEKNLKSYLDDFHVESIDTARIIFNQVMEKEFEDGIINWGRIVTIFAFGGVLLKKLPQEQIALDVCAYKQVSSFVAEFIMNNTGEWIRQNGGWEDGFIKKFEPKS
# Description: (§4) Recombinant human Bcl-xL ΔC24, mouse Mcl-1 ΔN151 ΔC23 and mouse A1 ΔC20 were expressed as GST fusion proteins and cleaved off Glutathione Sepharose columns as described (Day et al., Cell Death Differ 6:1125-1132, 1999; Hinds et al., EMBO J 22:1497-1507, 2003).
# (§5) Affinity measurements were performed at room temperature on a Biacore 3000 biosensor (Biacore) with HBS (10 mM HEPES pH 7.2, 150 mM NaCl, 3.4 mM EDTA, 0.005% Tween 20) as the running buffer. Mouse 26-mer ^wtBimBH3, ^4EBimBH3 mutant, BadBH3, NoxaBH3 or control irrelevant peptides were immobilized onto CM5 sensor chips using amine-coupling chemistry (Wilson-Annan et al., Supra). To assess the binding affinities of pro-survival Bcl-2-like proteins for BimBH3 directly, the proteins were directly injected into the sensor chip at 20 μl/min. Residual bound proteins were desorbed with 50 mM NaOH or 6 M GuHCl (pH 7.2), followed by two washes with running buffer. Binding kinetics were derived from sensorgrams, following subtraction of baseline responses, using BIA evaluation software (version 3, Biacore) (Wilson-Annan et al., Supra).
# (§6) The binding constants of the pro-survival molecules for ^wtBimBH3, immobilized on sensor chip, were determined using biosensor experiments as described in Hinds et al., Supra; Wilson-Annan et al., Supra.
# Mcl-1 ΔN151 ΔC23 = target: T5, Mcl-1 ΔN151 ΔC23 (Mus musculus, UniProt P97287); experiment: as above; conditions: BadBH3 or NoxaBH3 immobilized chip
# T5 construct: mouse Mcl-1 (Acc. no. NP_031588; residues 152-308); GST (N, cleaved yes); made in house
# T5 sequence (P97287 152-308): as the sequence (P97287 152-308) above
# Description: as §4, §5, §6
# Bcl-w = target: T6, Bcl-w (Homo sapiens, UniProt Q92843, A128E/C29S); experiment: Solution competition assay (competition with immobilized wtBimBH3, biosensor); format: binding
# T6 construct: human Bcl-w (Acc. no. NP_004041; residues 1-164; C29S A128E); made in house
# T6 sequence (Q92843 1-164 C29S/A128E): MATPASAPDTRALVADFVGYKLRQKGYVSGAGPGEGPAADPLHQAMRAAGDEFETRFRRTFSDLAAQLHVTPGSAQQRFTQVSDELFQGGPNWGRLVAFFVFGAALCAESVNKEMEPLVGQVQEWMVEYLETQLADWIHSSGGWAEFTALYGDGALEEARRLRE
# Description: as §1, §2, §3
# [4] = competitor peptide vs immobilized wtBimBH3, read-out: IC50 for Bcl-xL
substance,measurement,setting,value
"BidBH3: human Bid BH3 peptide residues 81-104, DIIRNIARHLAQVGDSMDRSIPPG",binding preference among pro-survival proteins,[1],"preferred Bcl-xL, Bcl-w and A1 over Bcl-2 or Mcl-1"
"BikBH3: human Bik BH3 peptide residues 51-75, MEGSDALALRLACIGDEMDVSLRAP",binding preference among pro-survival proteins,[1],"preferred Bcl-xL, Bcl-w and A1 over Bcl-2 or Mcl-1"
"Bims: Bim isoform, the most potent, expressed from retrovirus in MEFs",killing of MEFs,[2],soon died
same,"long-term survival, GFP+ve colonies",[3],failed to generate colonies; also recorded: No colonies
"BmfBH3: mouse Bmf BH3 peptide residues 128-151, HRAEVQIARKLQCIADQFHRLHTQ",binding preference among pro-survival proteins,[1],showed similar preferences
H-PAELEVECATQLRRFGDELNFRQKLL-OH [Noxa (18-43) mt1],binding to Bcl-2,Bcl-2,remained weak
same,fold tighter than wild-type peptide,Bcl-xL,at least 17 fold
same,increase in binding to Bcl-xL,Bcl-xL,more than 20 fold
H-PAELEVECATQLRRIGDELNFRQKLL-OH [Noxa (18-43) mt3],binding to Bcl-2,Bcl-2,remained weak
same,IC50,Bcl-xL; [4],0.11 µM
same,Mcl-1 binding,Mcl-1,slightly improved
H-PAELEVECATQLRRIGDKLNFRQKLL-OH [Noxa (18-43) mt2],binding to Bcl-2,Bcl-2,remained weak
same,fold tighter than wild-type peptide,Bcl-xL,at least 90 fold
same,increase in binding to Bcl-xL,Bcl-xL,more than 100 fold
Hrk: BH3-only protein Hrk expressed from retrovirus in MEFs,killing of MEFs,[2],much less potent killers
PAELEVECATQLRRFGDKLNFRQKLL [Noxa (18-43)],binding of A1 to immobilized peptide,A1 ΔC20,bound
same,binding of Mcl-1 to immobilized peptide,Mcl-1 ΔN151 ΔC23,bound
same,IC50,"Bcl-2; Bcl-2, one of 'the others'",> 100 µM
same,IC50,"Bcl-w; Bcl-w, one of 'the others', read-out: IC50",> 100 µM
same,IC50,"Bcl-w; competitor peptide vs immobilized wtBimBH3, read-out: IC50 for Bcl-w",> 100 µM
same,IC50,"Bcl-xL; Bcl-xL, b59-60 do not name the target, values match Table 4, read-out: IC50",> 100 µM
same,IC50,Bcl-xL; [4],> 100 µM
same,binding preference among pro-survival proteins,[1]; listed as Noxa BH3,selectively binds Mcl-1 and A1
same,binding preference among pro-survival proteins,[1]; listed as NoxaBH3,highly selective for Mcl-1 and A1
same,IC50,[1]; Mcl-1 and A1,nM range
"PumaBH3: human Puma BH3 peptide residues 130-155, EEQWAREIGAQLRRMADDLNAQYERR",binding preference among pro-survival proteins,[1],comparable affinities for all the pro-survival proteins
